# Measured values published in ChEMBL document CHEMBL4270599, “Synthesis of a 3'-C-ethynyl-β-d-ribofuranose purine nucleoside library: Discovery of C7-deazapurine analogs as potent antiproliferative nucleosides” (Eur J Med Chem, 2018).
# What was measured:
# Assay type in all cases: functional
# M14 [1] = assay: Growth inhibition of human M14 cells assessed as cell growth at 10^-7 M incubated for 48 hrs by sulforhodamine B assay relative to control; conditions: M14, 48 h, read-out: Activity
# EKVX [2] = assay: Growth inhibition of human EKVX cells assessed as cell growth at 10^-6 M incubated for 48 hrs by sulforhodamine B assay relative to control; conditions: read-out: Activity
# UACC-257 = assay: Cytotoxicity against human UACC257 cells after 48 hrs by SRB assay; conditions: UACC-257, 48 h
# EKVX [3] = assay: Growth inhibition of human EKVX cells assessed as cell growth at 10^-7 M incubated for 48 hrs by sulforhodamine B assay relative to control; conditions: read-out: Activity
# MDA-MB-231 [4] = assay: Growth inhibition of human MDA-MB-231 cells assessed as cell growth at 10^-4 M incubated for 48 hrs by sulforhodamine B assay relative to control; conditions: MDA-MB-231, 48 h, read-out: Activity
# MDA-MB-231 [5] = assay: Growth inhibition of human MDA-MB-231 cells assessed as cell growth at 10^-5 M incubated for 48 hrs by sulforhodamine B assay relative to control; conditions: MDA-MB-231, 48 h, read-out: Activity
# BT-549 [6] = assay: Growth inhibition of human BT549 cells assessed as cell growth at 10^-7 M incubated for 48 hrs by sulforhodamine B assay relative to control; conditions: BT-549, 48 h, read-out: Activity
# SN12C [7] = assay: Growth inhibition of human SN12C cells assessed as cell growth at 10^-7 M incubated for 48 hrs by sulforhodamine B assay relative to control; conditions: read-out: Activity
# SN12C [8] = assay: Growth inhibition of human SN12C cells assessed as cell growth at 10^-8 M incubated for 48 hrs by sulforhodamine B assay relative to control; conditions: read-out: Activity
# PC-3 = assay: Growth inhibition of human PC3 cells assessed as cell growth at 10^-8 M incubated for 48 hrs by sulforhodamine B assay relative to control; conditions: PC-3, 48 h, read-out: Activity
# OVCAR-8 = assay: Growth inhibition of human OVCAR8 cells assessed as cell growth at 10^-8 M incubated for 48 hrs by sulforhodamine B assay relative to control; conditions: OVCAR-8, 48 h, read-out: Activity
# NCI-H226 = assay: Growth inhibition of human NCI-H226 cells assessed as cell growth at 10^-7 M incubated for 48 hrs by sulforhodamine B assay relative to control; conditions: NCI-H226, 48 h, read-out: Activity
# HCT-15 = assay: Growth inhibition of human HCT15 cells assessed as cell growth at 10^-4 M incubated for 48 hrs by sulforhodamine B assay relative to control; conditions: HCT-15, 48 h, read-out: Activity
# A498 [9] = assay: Cytotoxicity against human A498 cells after 48 hrs by SRB assay; conditions: A498, 48 h
# BT-549 [10] = assay: Growth inhibition of human BT549 cells assessed as cell growth at 10^-6 M incubated for 48 hrs by sulforhodamine B assay relative to control; conditions: BT-549, 48 h, read-out: Activity
# HL-60(TB) = assay: Growth inhibition of human HL-60(TB) cells assessed as cell growth at 10^-7 M incubated for 48 hrs by sulforhodamine B assay relative to control; conditions: HL-60, 48 h, read-out: Activity
# OVCAR-4 = assay: Growth inhibition of human OVCAR4 cells assessed as cell growth at 10^-7 M incubated for 48 hrs by sulforhodamine B assay relative to control; conditions: OVCAR-4, 48 h, read-out: Activity
# UO-31 [11] = assay: Growth inhibition of human UO31 cells assessed as cell growth at 10^-7 M incubated for 48 hrs by sulforhodamine B assay relative to control; conditions: UO-31, 48 h, read-out: Activity
# K562 = assay: Cytotoxicity against human K562 cells after 48 hrs by SRB assay; conditions: K562, 48 h
# CCRF-CEM = assay: Growth inhibition of human CCRF-CEM cells assessed as cell growth at 10^-8 M incubated for 48 hrs by sulforhodamine B assay relative to control; conditions: read-out: Activity
# M14 [12] = assay: Cytotoxicity against human M14 cells after 48 hrs by SRB assay; conditions: M14, 48 h
# SF-295 = assay: Growth inhibition of human SF295 cells assessed as cell growth at 10^-6 M incubated for 48 hrs by sulforhodamine B assay relative to control; conditions: SF-295, 48 h, read-out: Activity
# UO-31 [13] = assay: Cytotoxicity against human UO31 cells after 48 hrs by SRB assay; conditions: UO-31, 48 h
# Hs-578T = assay: Growth inhibition of human Hs 578T cells assessed as cell growth at 10^-7 M incubated for 48 hrs by sulforhodamine B assay relative to control; conditions: read-out: Activity
# SNB-19 = assay: Cytotoxicity against human SNB19 cells after 48 hrs by SRB assay; conditions: SNB-19, 48 h
# COLO 205 = assay: Cytotoxicity against human COLO205 cells after 48 hrs by SRB assay; conditions: COLO 205, 48 h
# UO-31 [14] = assay: Growth inhibition of human UO31 cells assessed as cell growth at 10^-8 M incubated for 48 hrs by sulforhodamine B assay relative to control; conditions: UO-31, 48 h, read-out: Activity
# A498 [15] = assay: Growth inhibition of human A498 cells assessed as cell growth at 10^-8 M incubated for 48 hrs by sulforhodamine B assay relative to control; conditions: A498, 48 h, read-out: Activity
# SF-539 = assay: Cytotoxicity against human SF539 cells after 48 hrs by SRB assay; conditions: SF-539, 48 h
# ACHN [16] = assay: Growth inhibition of human ACHN cells assessed as cell growth at 10^-8 M incubated for 48 hrs by sulforhodamine B assay relative to control; conditions: read-out: Activity
# ACHN [17] = assay: Growth inhibition of human ACHN cells assessed as cell growth at 10^-6 M incubated for 48 hrs by sulforhodamine B assay relative to control; conditions: read-out: Activity
# TK-10 = assay: Cytotoxicity against human TK10 cells after 48 hrs by SRB assay; conditions: TK-10, 48 h
# ACHN [18] = assay: Growth inhibition of human ACHN cells assessed as cell growth at 10^-4 M incubated for 48 hrs by sulforhodamine B assay relative to control; conditions: read-out: Activity
# [19] = read-out: pLC50 (the source's name) (converted)
# [20] = read-out: LC50 (the source's name)
smiles,measurement,setting,value
C#C[C@@]1(O)[C@@H](CO)O[C@@H](n2ccc3c(N)ncnc32)[C@@H]1O,growth at 0.1 µM,M14 [1],99%
same,growth at 1 µM,EKVX [2],67%
same,TGI,UACC-257; read-out: TGI,7.05 µM
same,GI50,UACC-257; read-out: pGI50 (converted),2.29 µM
same,CC50,UACC-257; [19],55 µM
same,TGI,UACC-257; read-out: pTGI (converted),7.08 µM
same,growth at 0.1 µM,EKVX [3],92%
same,growth at 100 µM,MDA-MB-231 [4],-53%
same,growth at 10 µM,MDA-MB-231 [5],-20%
same,growth at 0.1 µM,BT-549 [6],102%
same,growth at 0.1 µM,SN12C [7],96%
same,growth at 0.01 µM,SN12C [8],94%
same,growth at 0.01 µM,PC-3,97%
same,growth at 0.01 µM,OVCAR-8,103%
same,growth at 0.1 µM,NCI-H226,111%
same,growth at 100 µM,HCT-15,-32%
same,TGI,A498 [9]; read-out: TGI,3.74 µM
same,GI50,A498 [9]; read-out: pGI50 (converted),1.66 µM
same,TGI,A498 [9]; read-out: pTGI (converted),3.72 µM
same,growth at 1 µM,BT-549 [10],80%
same,growth at 0.1 µM,HL-60(TB),105%
same,growth at 0.1 µM,OVCAR-4,97%
same,growth at 0.1 µM,UO-31 [11],105%
same,CC50,K562; [20],> 100 µM
same,TGI,K562; read-out: TGI,> 100 µM
same,GI50,K562; read-out: pGI50 (converted),0.813 µM
same,TGI,K562; read-out: pTGI,> 100 µM
same,growth at 0.01 µM,CCRF-CEM,102%
same,TGI,M14 [12]; read-out: TGI,3 µM
same,GI50,M14 [12]; read-out: pGI50 (converted),1.41 µM
same,CC50,M14 [12]; [19],6.31 µM
same,TGI,M14 [12]; read-out: pTGI (converted),3.02 µM
same,growth at 1 µM,SF-295,74%
same,TGI,UO-31 [13]; read-out: TGI,3.58 µM
same,GI50,UO-31 [13]; read-out: pGI50 (converted),1.41 µM
same,TGI,UO-31 [13]; read-out: pTGI (converted),3.55 µM
same,growth at 0.1 µM,Hs-578T,100%
same,TGI,SNB-19; read-out: TGI,6.6 µM
same,GI50,SNB-19; read-out: pGI50 (converted),1.62 µM
same,CC50,SNB-19; [19],> 100 µM
same,TGI,SNB-19; read-out: pTGI (converted),6.61 µM
same,TGI,COLO 205; read-out: TGI,2.67 µM
same,GI50,COLO 205; read-out: pGI50 (converted),0.676 µM
same,CC50,COLO 205; [19],8.91 µM
same,TGI,COLO 205; read-out: pTGI (converted),2.69 µM
same,growth at 0.01 µM,UO-31 [14],94%
same,growth at 0.01 µM,A498 [15],85%
same,CC50,SF-539; [20],11.6 µM
same,TGI,SF-539; read-out: TGI,4.44 µM
same,GI50,SF-539; read-out: pGI50 (converted),1.91 µM
same,CC50,SF-539; [19],11.7 µM
same,TGI,SF-539; read-out: pTGI (converted),4.47 µM
same,growth at 0.01 µM,ACHN [16],97%
same,growth at 1 µM,ACHN [17],33%
same,CC50,TK-10; [20],> 100 µM
same,TGI,TK-10; read-out: TGI,9.48 µM
same,GI50,TK-10; read-out: pGI50 (converted),2.63 µM
same,TGI,TK-10; read-out: pTGI (converted),9.55 µM
same,growth at 100 µM,ACHN [18],-24%
